From patent US5674467A, “Meso-tetraphenylporphyrin complex compounds, process for their production and pharmaceutical agents containing the latter” (Institut fur Diagnostikforschung GmbH, priority 1993, dated 1997)

Legend:
[1] = tested on: muscle; experiment: MR-imaging of VX-2 tumor-bearing rabbits: muscle; format: in vivo, rabbit; conditions: 0.1 mmol/kg i.v.
Description: (§1) MR-Imaging Experiment of Tumor-bearing (VX-2 Carcinoma) Rabbits
(§2) Siemens magnetom® (1.5 tesla; 64 MHz), T1 -accentuated spin-echo technique: TR : 350 ms, TE : 15 ms. slice orientation: coronary, slice thickness: 3 mm, number of averages: 4 per layer, field of view: 150 mm, matrix: 256^2, 4-6 layers, 1 echo per imaging sequence.
(§3) Hare rabbit, Wulf, female,=4 kg of body weight (KGW) [n=3].
(§4) Carcinoma (VX-2), implanted intramuscularly about 3 weeks before the beginning of the test.
(§5) 0.05 and 0.1 mmol/kg of body weight i.v.

[2] = tested on: lymph node metastasis; experiment: MR-imaging of VX-2 tumor-bearing rabbits: lymph node metastasis; format: in vivo, rabbit; conditions: 0.1 mmol/kg i.v.
Description: as §1, §2, §3, §4, §5

[3] = tested on: VX-2 carcinoma; experiment: MR-imaging of VX-2 tumor-bearing rabbits: VX-2 carcinoma; format: in vivo, rabbit; conditions: 0.1 mmol/kg i.v.
Description: as §1, §2, §3, §4, §5

[4] = tested on: implanted tumor and lymph nodes; experiment: MR-imaging of VX-2 tumor-bearing rabbits: implanted tumor and lymph nodes; format: in vivo, rabbit; conditions: 0.1 mmol/kg i.v.
Description: as §1, §2, §3, §4, §5

[5] = tested on: lymph nodes (iliacal); experiment: MR-imaging of VX-2 tumor-bearing rabbits: lymph nodes (iliacal); format: in vivo, rabbit; conditions: 0.1 mmol/kg i.v.
Description: as §1, §2, §3, §4, §5

[6] = Compatibility in mice after i.v. administration, 7-day observation; conditions: mouse, in vivo, iv, 7 days observation, > if all animals tolerated the dose, < if all died
Protocol: (§6) Determination of Compatibility and Relaxivity of the Compounds According to the Invention
The compatibility was examined preliminarily in mice (NMRI, Schering SPF, female, about 25 g). 0.5 mmol/kg of the substance in each case was administered intravenously to a mouse. The animal died, the dose was halved and correspondingly moved, otherwise the corresponding dose was administered to 2 additional mice. The period of observation was 7 days. The compatibility is indicated with > if all animals tolerated the corresponding dose, with < if all died.

[7] = Relaxivity on relaxometer (minispec pc120; 20 MHz; 40° C.); format: physicochemical; conditions: dist. water, pH 7.4, 20 MHz, 0-1 mmol/l
Protocol: as §6
To determine the relaxivity, the relaxation times of the substances were measured in 4 different concentrations (0-1 mmol/l; dissolved in dist. water; pH 7.4) on a relaxometer (minispec pc120; 20 MHz; 40° C.). The calculation was performed from:
Δ(1/T1,2 -1/T1,2 blank value)/Δconc.=R1,2

[8] = 0 min p.i. (precontrast set to 1)

With Gd-DTPA the “Relative signal intensity, muscle” value [1, 8] was 1.00, the “Relative signal intensity, muscle” value ([1]; 2 min p.i.) was 1.20 and the “Relative signal intensity, muscle” value ([1]; 8 min p.i.) was 1.11. For the same compound, the “Relative signal intensity, muscle” value ([1]; 17 min p.i.) was 1.10, the “Relative signal intensity, muscle” value ([1]; 42 min p.i.) was 1.07 and the “Relative signal intensity, muscle” value ([1]; 52 min p.i.) was 1.02. For the same compound, the “Relative signal intensity, muscle” value ([1]; 69 min p.i.) was 1.08, the “Relative signal intensity, muscle” value ([1]; 24 hours p.i.) was 1.04 and the “Relative signal intensity, lymph node metastasis” value [2, 8] was 1.00. For the same compound, the “Relative signal intensity, lymph node metastasis” value ([2]; 2 min p.i.) was 1.61, the “Relative signal intensity, lymph node metastasis” value ([2]; 8 min p.i.) was 1.44 and the “Relative signal intensity, lymph node metastasis” value ([2]; 17 min p.i.) was 1.36. The “Relative signal intensity, lymph node metastasis” value ([2]; 42 min p.i.) was 1.29, the “Relative signal intensity, lymph node metastasis” value ([2]; 52 min p.i.) was 1.20 and the “Relative signal intensity, lymph node metastasis” value ([2]; 69 min p.i.) was 1.25. For the same compound, the “Relative signal intensity, lymph node metastasis” value ([2]; 24 hours p.i.) was 0.97, the “Relative signal intensity, VX-2 carcinoma” value [3, 8] was 1.00 and the “Relative signal intensity, VX-2 carcinoma” value ([3]; 2 min p.i.) was 1.50. The “Relative signal intensity, VX-2 carcinoma” value ([3]; 8 min p.i.) was 1.50, the “Relative signal intensity, VX-2 carcinoma” value ([3]; 17 min p.i.) was 1.48 and the “Relative signal intensity, VX-2 carcinoma” value ([3]; 42 min p.i.) was 1.47. For the same compound, the “Relative signal intensity, VX-2 carcinoma” value ([3]; 52 min p.i.) was 1.42, the “Relative signal intensity, VX-2 carcinoma” value ([3]; 69 min p.i.) was 1.40 and the “Relative signal intensity, VX-2 carcinoma” value ([3]; 24 hours p.i.) was 1.11. The “enhancement of tumors or metastases after about 60-90 minutes” value [4] was “almost no enhancement of tumors or metastases was observed any longer”, the “signal rise in implanted tumor and lymph nodes” value ([4]; lymph nodes on tumor-bearing and tumor-free side (iliacal and popliteal)) was “only in a brief, small signal rise” and the “time until approximately the starting intensity was reached again” value ([4]; virtually all examined tissues, within about) was 60 to 90 min. For the same compound, the “Relative signal intensity, lymph nodes (iliacal)” value [5, 8] was 1.00, the “Relative signal intensity, lymph nodes (iliacal)” value ([5]; 2 min p.i.) was 1.50 and the “Relative signal intensity, lymph nodes (iliacal)” value ([5]; 8 min p.i.) was 1.32. The “Relative signal intensity, lymph nodes (iliacal)” value ([5]; 17 min p.i.) was 1.20, the “Relative signal intensity, lymph nodes (iliacal)” value ([5]; 42 min p.i.) was 1.24 and the “Relative signal intensity, lymph nodes (iliacal)” value ([5]; 52 min p.i.) was 1.17. The “Relative signal intensity, lymph nodes (iliacal)” value ([5]; 69 min p.i.) was 1.11 and the “Relative signal intensity, lymph nodes (iliacal)” value ([5]; 24 hours p.i.) was 1.14.
In the case of O=C(O)COc1cccc(-c2c3nc(c(-c4cccc(OCC(=O)O)c4)c4ccc([nH]4)c(-c4cccc(OCC(=O)O)c4)c4nc(c(-c5cccc(OCC(=O)O)c5)c5ccc2[nH]5)C=C4)C=C3)c1.[Cl-].[Cl-].[Cl-].[Mn+3] [Example 2c, Manganese(III)-{5,10,15,20-tetrakis-[3-(carboxymethoxy)-phenyl]-porphyrin}-chloride], the MTD at 168 h [6] is reported as over 500 µmol/kg and the “Relaxivity R1” value [7] is reported as 13 I/mmol/s.
For “Manganese (III){5,10,15,20tetrakis-{[4carboxylic acid(2,3-dihydroxy-1-hydroxymethylpropyl)-amidephenylporphyrinacetate [Example 2 from EP 0336 879 A1]”, the “Relaxivity R1” value [7] was 8.6 I/mmol/s.
For CC(=O)[O-].COc1ccc(-c2c3nc(c(-c4ccc(OC)c(S(=O)(=O)[O-])c4)c4ccc([nH]4)c(-c4ccc(OC)c(S(=O)(=O)[O-])c4)c4nc(c(-c5ccc(OC)c(S(=O)(=O)[O-])c5)c5ccc2[nH]5)C=C4)C=C3)cc1S(=O)(=O)[O-].[Mn+3].[Na+].[Na+].[Na+].[Na+] [Example 17 from EP 0336 879 A1], the “Relaxivity R1” value [7] was 9.2 I/mmol/s.
With CC(=O)[O-].CC(=O)[O-].CC(=O)[O-].CCOC(=O)COc1ccc(-c2c3nc(c(-c4ccc(OCC(=O)OCC)c(OCC(=O)OCC)c4)c4ccc([nH]4)c(-c4ccc(OCC(=O)OCC)c(OCC(=O)OCC)c4)c4nc(c(-c5ccc(OCC(=O)OCC)c(OCC(=O)OCC)c5)c5ccc2[nH]5)C=C4)C=C3)cc1OCC(=O)OCC.[Mn+3] [Example 4c, Manganese(III)-{5,10,15,20-tetrakis-[3,4-bis-(ethoxycarbonylmethoxy)-phenyl]-porphyrin}-acetate] the MTD at 168 h [6] was at least 500 µmol/kg and the “Relaxivity R1” value [7] was 11.6 I/mmol/s.
In the case of CC(=O)[O-].O=C([O-])c1cccc(-c2c3nc(c(-c4cccc(C(=O)[O-])c4)c4ccc([nH]4)c(-c4cccc(C(=O)[O-])c4)c4nc(c(-c5cccc(C(=O)[O-])c5)c5ccc2[nH]5)C=C4)C=C3)c1.[Mn+3] [Example 4 from EP 0336 879 A1], the “Relaxivity R1” value [7] is reported as 8.8 I/mmol/s.
